Assay results taken from ChEMBL document CHEMBL6134930, “Discovery of AB801, a Potent and Selective Inhibitor of AXL Receptor Tyrosine Kinase for Use in Cancer Therapy” (J Med Chem, 2025).

Key:
[1] = Efflux ratio in human Caco-2 cells; format: ADME, cell-based
[2] = Metabolic stability in human hepatocytes assessed as intrinsic clearance measured per 10^6 cells; format: ADME, cell-based, Hepatocyte; conditions: read-out: CLH
[3] = molecular target: CYP2D6 (Homo sapiens, UniProt P10635); experiment: Time dependent inhibition of CYP2D6 (unknown origin) at 30 uM measured after 30 mins relative to control; format: ADME; conditions: read-out: TDI
[4] = molecular target: T1, CYP3A4 (Homo sapiens, UniProt P08684); experiment: Time dependent inhibition of CYP3A4 (unknown origin) using midazolam as substrate at 30 uM measured after 30 mins relative to control; format: ADME; conditions: probe midazolam, read-out: TDI
[5] = molecular target: T2, Tyrosine-protein kinase receptor UFO (Homo sapiens, UniProt P30530); experiment: Inhibition of autophosphorylation AXL (unknown origin) expressed in HEK293 cells assessed as NanoLuc activity associated with phosphorylated proteins measured after 1 hr incubation by intracellular pAXL-ELISA; format: cell-based
T2 sequence (P30530 whole entry): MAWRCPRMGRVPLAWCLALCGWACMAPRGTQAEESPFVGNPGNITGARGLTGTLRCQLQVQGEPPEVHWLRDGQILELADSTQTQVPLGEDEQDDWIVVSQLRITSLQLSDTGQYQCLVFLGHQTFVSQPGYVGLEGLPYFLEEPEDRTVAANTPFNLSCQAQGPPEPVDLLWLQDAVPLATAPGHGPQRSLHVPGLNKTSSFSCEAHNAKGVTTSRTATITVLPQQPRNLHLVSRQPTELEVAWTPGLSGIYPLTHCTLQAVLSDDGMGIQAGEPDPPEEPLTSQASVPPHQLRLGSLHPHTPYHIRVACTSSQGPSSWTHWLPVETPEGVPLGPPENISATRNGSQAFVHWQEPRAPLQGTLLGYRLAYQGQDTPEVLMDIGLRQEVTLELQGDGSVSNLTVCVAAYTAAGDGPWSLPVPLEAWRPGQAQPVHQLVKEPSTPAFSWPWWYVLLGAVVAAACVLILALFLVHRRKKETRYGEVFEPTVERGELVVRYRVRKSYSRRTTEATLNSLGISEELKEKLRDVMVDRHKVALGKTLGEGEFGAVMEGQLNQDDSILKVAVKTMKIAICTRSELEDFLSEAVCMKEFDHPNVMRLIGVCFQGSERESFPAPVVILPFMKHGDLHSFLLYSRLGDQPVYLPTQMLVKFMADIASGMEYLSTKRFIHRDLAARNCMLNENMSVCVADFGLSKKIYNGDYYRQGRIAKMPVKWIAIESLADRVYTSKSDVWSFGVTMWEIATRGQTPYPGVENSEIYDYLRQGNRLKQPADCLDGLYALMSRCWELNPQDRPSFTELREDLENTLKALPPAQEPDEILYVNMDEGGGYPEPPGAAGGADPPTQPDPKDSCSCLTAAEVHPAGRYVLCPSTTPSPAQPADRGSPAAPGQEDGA

[6] = molecular target: CYP2C19 (Homo sapiens, UniProt P33261); experiment: Time dependent inhibition of CYP2C19 (unknown origin) at 30 uM measured after 30 mins relative to control; format: ADME; conditions: read-out: TDI
[7] = Clearance in cynomolgus monkey at 0.5 mg/kg, iv measured up to 24 hrs by LC-MS/MS analysis; format: ADME, organism-based, Macaca fascicularis; conditions: in vivo
[8] = molecular target: hERG (KCNH2) (Homo sapiens, UniProt Q12809); experiment: Inhibition of hERG at 10 uM by high throughput cell based patch clamp assay; format: toxicity
[9] = Clearance in Beagle dog at 0.5 mg/kg, iv measured up to 24 hrs by LC-MS/MS analysis; format: ADME, organism-based, Canis lupus familiaris; conditions: in vivo
[10] = molecular target: T3, CYP1A2 (Homo sapiens, UniProt P05177); experiment: Time dependent inhibition of CYP1A2 (unknown origin) at 30 uM measured after 30 mins relative to control; format: ADME; conditions: read-out: TDI
T3 sequence (P05177 whole entry): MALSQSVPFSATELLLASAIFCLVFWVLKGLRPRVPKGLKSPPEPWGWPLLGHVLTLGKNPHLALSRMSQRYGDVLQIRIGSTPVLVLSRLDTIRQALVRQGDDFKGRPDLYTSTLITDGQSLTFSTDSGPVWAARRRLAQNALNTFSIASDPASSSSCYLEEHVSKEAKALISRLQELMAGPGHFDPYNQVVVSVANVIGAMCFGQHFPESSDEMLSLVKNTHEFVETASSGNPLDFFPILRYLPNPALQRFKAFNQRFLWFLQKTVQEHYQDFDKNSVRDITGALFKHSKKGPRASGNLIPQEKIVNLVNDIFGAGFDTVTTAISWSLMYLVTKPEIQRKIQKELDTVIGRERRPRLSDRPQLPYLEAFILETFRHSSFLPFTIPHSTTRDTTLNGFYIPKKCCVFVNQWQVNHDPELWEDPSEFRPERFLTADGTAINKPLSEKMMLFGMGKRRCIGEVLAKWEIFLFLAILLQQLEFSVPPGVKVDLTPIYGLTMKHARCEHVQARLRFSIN

[11] = AUCinf in Sprague-Dawley rat at 2 mg/kg, po measured up to 8 hrs by LC-MS/MS analysis; format: ADME, organism-based; conditions: in vivo
[12] = Apparent permeability of compound from apical to basolateral side in human Caco-2 cells; format: ADME, cell-based; conditions: read-out: permeability
[13] = molecular target: T4, CYP2C8 (Homo sapiens, UniProt P10632); experiment: Time dependent inhibition of CYP2C8 (unknown origin) at 30 uM measured after 30 mins relative to control; format: ADME; conditions: read-out: TDI
T4 sequence (P10632 whole entry): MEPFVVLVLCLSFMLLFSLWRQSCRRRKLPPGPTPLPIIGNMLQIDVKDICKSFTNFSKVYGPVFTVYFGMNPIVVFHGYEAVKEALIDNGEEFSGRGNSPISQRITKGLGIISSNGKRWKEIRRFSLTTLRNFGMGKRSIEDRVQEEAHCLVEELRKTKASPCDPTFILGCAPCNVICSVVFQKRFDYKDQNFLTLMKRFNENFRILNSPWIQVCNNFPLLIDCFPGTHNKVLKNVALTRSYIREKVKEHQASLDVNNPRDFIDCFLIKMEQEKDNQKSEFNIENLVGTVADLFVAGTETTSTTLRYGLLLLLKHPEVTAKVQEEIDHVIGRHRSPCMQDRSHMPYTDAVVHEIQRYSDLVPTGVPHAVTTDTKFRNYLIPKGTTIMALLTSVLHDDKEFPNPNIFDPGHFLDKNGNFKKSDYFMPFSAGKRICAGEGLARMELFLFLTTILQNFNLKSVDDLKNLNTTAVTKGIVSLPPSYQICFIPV

[14] = molecular target: T1, CYP3A4; experiment: Time dependent inhibition of CYP3A4 (unknown origin) using testosterone as substrate at 30 uM measured after 30 mins relative to control; format: ADME; conditions: probe testosterone, read-out: TDI
[15] = molecular target: T2, Tyrosine-protein kinase receptor UFO; experiment: Inhibition of human AXL measured after 150 mins by ATP-competitive HTRF based biochemical assay
[16] = Clearance in Sprague-Dawley rat at 0.5 mg/kg, iv measured up to 24 hrs by LC-MS/MS analysis; format: ADME, organism-based; conditions: in vivo
[17] = molecular target: T5, CYP2B6 (Homo sapiens, UniProt P20813); experiment: Time dependent inhibition of CYP2B6 (unknown origin) at 30 uM measured after 30 mins relative to control; format: ADME; conditions: read-out: TDI
T5 sequence (P20813 whole entry): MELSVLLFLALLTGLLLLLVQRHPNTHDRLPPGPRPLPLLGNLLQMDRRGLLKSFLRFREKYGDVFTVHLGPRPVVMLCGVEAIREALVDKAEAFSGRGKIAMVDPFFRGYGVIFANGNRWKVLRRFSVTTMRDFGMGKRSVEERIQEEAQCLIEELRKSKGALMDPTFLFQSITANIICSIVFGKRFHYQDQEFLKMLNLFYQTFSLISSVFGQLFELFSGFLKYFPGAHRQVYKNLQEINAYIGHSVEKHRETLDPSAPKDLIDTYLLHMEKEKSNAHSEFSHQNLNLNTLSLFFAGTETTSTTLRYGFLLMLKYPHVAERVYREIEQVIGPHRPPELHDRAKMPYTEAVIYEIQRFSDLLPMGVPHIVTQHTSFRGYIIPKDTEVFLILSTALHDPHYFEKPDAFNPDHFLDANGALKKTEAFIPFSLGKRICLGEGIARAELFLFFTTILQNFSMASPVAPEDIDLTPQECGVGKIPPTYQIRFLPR

[18] = molecular target: CYP2C9 (Homo sapiens, UniProt P11712); experiment: Time dependent inhibition of CYP2C9 (unknown origin) at 30 uM measured after 30 mins relative to control; format: ADME; conditions: read-out: TDI
[19] = Clearance in CD-1 mouse at 0.5 mg/kg, iv measured up to 24 hrs by LC-MS/MS analysis; format: ADME, organism-based; conditions: in vivo
[20] = Metabolic stability in rat hepatocytes assessed as intrinsic clearance measured per 10^6 cells; format: ADME, cell-based, Hepatocyte; conditions: read-out: CLH

T1 sequence (P08684 whole entry): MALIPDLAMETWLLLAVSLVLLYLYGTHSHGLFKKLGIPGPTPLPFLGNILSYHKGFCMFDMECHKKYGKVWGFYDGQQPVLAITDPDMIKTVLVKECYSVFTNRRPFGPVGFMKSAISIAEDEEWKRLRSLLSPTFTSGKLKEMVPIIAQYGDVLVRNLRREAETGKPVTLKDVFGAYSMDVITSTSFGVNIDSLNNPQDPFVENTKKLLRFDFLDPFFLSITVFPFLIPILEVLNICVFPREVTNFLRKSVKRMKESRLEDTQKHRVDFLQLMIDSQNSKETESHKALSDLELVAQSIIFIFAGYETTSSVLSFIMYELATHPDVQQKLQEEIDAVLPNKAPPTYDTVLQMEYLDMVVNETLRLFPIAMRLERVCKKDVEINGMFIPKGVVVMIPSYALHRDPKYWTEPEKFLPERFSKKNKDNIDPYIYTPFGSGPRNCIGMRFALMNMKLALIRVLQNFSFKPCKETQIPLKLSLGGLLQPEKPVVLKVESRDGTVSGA
Sequence of CYP2D6 (P10635 whole entry): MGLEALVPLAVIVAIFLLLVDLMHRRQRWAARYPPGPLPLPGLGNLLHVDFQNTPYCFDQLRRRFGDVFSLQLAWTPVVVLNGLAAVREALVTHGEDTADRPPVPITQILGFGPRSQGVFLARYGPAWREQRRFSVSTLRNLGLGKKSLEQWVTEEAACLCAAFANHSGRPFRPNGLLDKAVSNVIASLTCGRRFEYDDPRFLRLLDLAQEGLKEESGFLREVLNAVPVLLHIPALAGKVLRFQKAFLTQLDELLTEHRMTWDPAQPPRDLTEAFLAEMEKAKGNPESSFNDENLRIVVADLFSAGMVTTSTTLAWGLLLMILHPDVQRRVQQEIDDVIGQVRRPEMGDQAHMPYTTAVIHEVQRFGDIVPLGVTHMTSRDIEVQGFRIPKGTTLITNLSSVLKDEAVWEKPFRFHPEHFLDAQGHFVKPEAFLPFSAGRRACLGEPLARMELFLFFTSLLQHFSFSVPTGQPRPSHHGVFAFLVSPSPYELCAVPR
Sequence of hERG (KCNH2) (Q12809 whole entry): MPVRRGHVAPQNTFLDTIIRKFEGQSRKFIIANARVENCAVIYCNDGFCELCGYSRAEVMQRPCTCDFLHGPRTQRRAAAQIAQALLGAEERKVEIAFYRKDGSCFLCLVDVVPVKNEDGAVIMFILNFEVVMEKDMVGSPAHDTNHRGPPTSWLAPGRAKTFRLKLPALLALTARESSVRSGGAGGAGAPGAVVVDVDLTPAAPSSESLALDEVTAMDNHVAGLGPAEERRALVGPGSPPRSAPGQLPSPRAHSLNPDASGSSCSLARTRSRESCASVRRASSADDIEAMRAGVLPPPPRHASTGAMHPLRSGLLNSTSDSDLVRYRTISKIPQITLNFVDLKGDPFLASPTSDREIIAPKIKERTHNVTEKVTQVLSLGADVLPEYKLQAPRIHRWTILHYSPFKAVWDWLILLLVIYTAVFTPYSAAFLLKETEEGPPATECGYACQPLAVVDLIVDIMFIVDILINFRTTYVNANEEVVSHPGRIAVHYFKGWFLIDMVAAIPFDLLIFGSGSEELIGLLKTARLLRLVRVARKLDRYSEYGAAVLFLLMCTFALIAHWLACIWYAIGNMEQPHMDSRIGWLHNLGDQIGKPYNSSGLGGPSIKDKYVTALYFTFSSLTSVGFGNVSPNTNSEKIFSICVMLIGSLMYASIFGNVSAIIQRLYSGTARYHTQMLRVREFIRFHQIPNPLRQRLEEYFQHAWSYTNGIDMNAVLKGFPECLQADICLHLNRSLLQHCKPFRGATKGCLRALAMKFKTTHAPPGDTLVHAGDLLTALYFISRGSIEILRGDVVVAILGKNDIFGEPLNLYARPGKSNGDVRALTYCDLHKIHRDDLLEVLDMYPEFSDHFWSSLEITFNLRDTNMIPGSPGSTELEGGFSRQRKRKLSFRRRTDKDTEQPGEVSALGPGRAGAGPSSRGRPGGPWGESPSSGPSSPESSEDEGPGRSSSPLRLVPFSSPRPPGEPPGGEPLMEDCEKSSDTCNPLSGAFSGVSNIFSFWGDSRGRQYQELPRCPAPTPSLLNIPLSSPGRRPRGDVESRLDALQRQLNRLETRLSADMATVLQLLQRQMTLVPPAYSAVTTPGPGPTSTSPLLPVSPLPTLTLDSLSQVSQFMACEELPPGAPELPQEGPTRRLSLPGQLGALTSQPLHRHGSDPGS
Sequence of CYP2C19 (P33261 whole entry): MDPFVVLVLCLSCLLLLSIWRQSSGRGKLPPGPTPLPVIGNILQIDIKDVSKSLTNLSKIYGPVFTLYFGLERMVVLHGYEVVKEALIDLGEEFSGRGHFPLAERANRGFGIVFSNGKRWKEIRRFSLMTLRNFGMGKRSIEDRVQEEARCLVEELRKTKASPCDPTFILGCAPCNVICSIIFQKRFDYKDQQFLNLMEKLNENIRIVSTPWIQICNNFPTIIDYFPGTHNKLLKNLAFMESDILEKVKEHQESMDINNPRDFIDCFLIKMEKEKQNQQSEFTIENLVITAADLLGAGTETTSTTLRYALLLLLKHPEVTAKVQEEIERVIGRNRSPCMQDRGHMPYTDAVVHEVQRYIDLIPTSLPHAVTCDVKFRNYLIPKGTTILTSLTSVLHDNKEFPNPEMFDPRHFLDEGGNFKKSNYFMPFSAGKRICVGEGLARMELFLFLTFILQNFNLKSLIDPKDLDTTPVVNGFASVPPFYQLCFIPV
Sequence of CYP2C9 (P11712 whole entry): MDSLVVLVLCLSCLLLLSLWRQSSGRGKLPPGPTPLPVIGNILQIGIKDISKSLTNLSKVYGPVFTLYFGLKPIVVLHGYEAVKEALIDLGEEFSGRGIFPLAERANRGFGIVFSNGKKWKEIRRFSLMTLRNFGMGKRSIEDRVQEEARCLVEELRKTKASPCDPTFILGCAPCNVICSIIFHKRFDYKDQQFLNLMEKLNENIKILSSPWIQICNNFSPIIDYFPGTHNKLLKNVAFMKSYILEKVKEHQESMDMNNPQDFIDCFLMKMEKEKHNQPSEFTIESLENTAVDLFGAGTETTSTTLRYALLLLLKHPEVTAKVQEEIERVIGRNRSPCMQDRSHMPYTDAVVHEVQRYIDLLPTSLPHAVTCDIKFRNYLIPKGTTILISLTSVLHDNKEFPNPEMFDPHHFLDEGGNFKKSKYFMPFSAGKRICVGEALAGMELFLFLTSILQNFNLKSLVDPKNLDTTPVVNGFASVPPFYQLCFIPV

SMILES: Cc1cccnc1-c1ccc(-c2c[nH]c3ncc(-c4ccc5c(c4)CC[C@@H](N4C6COCC4C6)CC5)cc23)cc1
- efflux ratio [1]: 0.9
- hepatocyte CLint [2]: < 2.7 µL/min/1e6 cells
- inhibition at 0.5 h, 30 µM [3]: 14%
- inhibition at 0.5 h, 30 µM [4]: 58%
- IC50 [5]: 67 nM
- inhibition at 0.5 h, 30 µM [6]: 12%
- clearance [7]: 4.67 mL/min/kg
- inhibition at 10 µM [8]: 40%
- clearance [9]: 11.8 mL/min/kg
- inhibition at 0.5 h, 30 µM [10]: 0%
- AUC(0-inf) [11]: 4800 ng·h/mL
- Papp A→B [12]: 0.58 ×10⁻⁶ cm/s
- inhibition at 0.5 h, 30 µM [13]: 0%
- inhibition at 0.5 h, 30 µM [14]: 69%
- IC50 [15]: 0.72 nM
- clearance [16]: 2.67 mL/min/kg
- inhibition at 0.5 h, 30 µM [17]: 14%
- inhibition at 0.5 h, 30 µM [18]: 13%
- clearance [19]: 3.33 mL/min/kg
- hepatocyte CLint [20]: 5.4 µL/min/1e6 cells
